According to patent publication US7229987B2, “Multicyclic compounds for use as melanin concentrating hormone antagonists in the treatment of obesity and diabetes” (Eli Lilly and Company, priority 2002, dated 2007):

| melting point [°C] | SMILES |
| --- | --- |
| 77.5 to 78 | COc1ccc(OCCSCc2nnc(-c3ccc(OCCCN(C)C)cc3)o2)cc1 [Example 277, [3-(4-{5-[2-(4-methoxy-phenoxy)-ethylsulfanylmethyl]-[1,3,4]oxadiazol-2-yl}-phenoxy)-propyl]-dimethyl-amine] |
| 70 | c1ccc(OCCSCc2nnc(-c3ccc(OCCCN4CCCC4)cc3)o2)cc1 [Example 88, 2-(2-phenoxy-ethylsulfanylmethyl)-5-[4-(3-pyrrolidin-1-yl-propoxy)-phenyl]-[1,3,4]oxadiazole] |
| 60 to 61 | CN1CCCC(Oc2ccc(-c3nnc(CSCCOc4ccccc4)o3)cc2)CC1 (centres unmarked) [Example 97, 1-methyl-4-{4-[5-(2-phenoxy-ethylsulfanylmethyl)-[1,3,4]oxadiazol-2-yl]-phenoxy}-azepane] |
| 47 to 49 | CN(C)CCCOc1ccc(-c2nnc(CSCCOc3ccccc3)o2)nc1 [Example 289, dimethyl-(3-{6-[5-(2-phenoxy-ethylsulfanylmethyl)-[1,3,4]oxadiazol-2-yl]-pyridin-3-yloxy}-propyl)-amine] |
| 62 to 63 | CN(C)CCCCOc1ccc(-c2nnc(CSCCOc3ccccc3)o2)cc1 [Example 68, dimethyl-(4-{4-[5-(2-phenoxy-ethylsulfanylmethyl)-[1,3,4]oxadiazol-2-yl]-phenoxy}-butyl)-amine] |
| 40 to 44 | CNCCCOc1ccc(-c2nnc(CSCCOc3ccccc3)o2)cc1 [Example 77, methyl-(3-{4-[5-(2-phenoxy-ethylsulfanylmethyl)-[1,3,4]oxadiazol-2-yl]-phenoxy}-propyl)-amine] |
| 146 to 147 | CN1CCN(c2ccc(-c3nnc(CSCCOc4ccccc4)o3)cn2)CC1.O=C(O)/C=C\C(=O)O [Example 293, 1-methyl-4-{5-[5-(2-phenoxy-ethylsulfanylmethyl)-[1,3,4]oxadiazol-2-yl]-pyridin-2-yl}-piperazine; maleic acid salt] |
| 115 to 116 | CN1CCCC(COc2ccc(-c3nnc(CSCCOc4ccccc4)o3)cc2)C1.O=C(O)/C=C\C(=O)O (centres unmarked) [Example 290, 1-methyl-3-{4-[5-(2-phenoxy-ethylsulfanylmethyl)-[1,3,4]oxadiazol-2-yl]-phenoxymethyl}-piperidine; maleic acid salt] |
| 126 to 130 | Nc1ccc(-c2nnc(CSCCOc3ccccc3)o2)cc1 [Example 116, 4-[5-(2-phenoxy-ethylsulfanylmethyl)-[1,3,4]oxadiazol-2-yl]-phenylamine] |
| 95 | CN(C)CCCOc1ccc(-c2nnc(-c3ccc(Oc4ccccc4)cc3)o2)cc1 [Example 248, Dimethyl-(3-{4-[5-(4-phenoxy-phenyl)-[1,3,4]oxadiazol-2-yl]-phenoxy}-propyl)-amine] |
| 70 | c1ccc(OCCSCc2nnc(-c3ccc(OCCN4CCCCC4)cc3)o2)cc1 [Example 72, 1-(2-{4-[5-(2-phenoxy-ethylsulfanylmethyl)-[1,3,4]oxadiazol-2-yl]-phenoxy}-ethyl)-piperidine] |
| 42 to 45 | CC(C)N(CCOc1ccc(-c2nnc(CSCCOc3ccccc3)o2)cc1)C(C)C [Example 73, diisopropyl-(2-{4-[5-(2-phenoxy-ethylsulfanylmethyl)-[1,3,4]oxadiazol-2-yl]-phenoxy}-ethyl)-amine] |
| 70 to 72 | c1ccc(OCCSCc2nnc(-c3ccc(OCCN4CCOCC4)cc3)o2)cc1 [Example 74, 4-(2-{4-[5-(2-phenoxy-ethylsulfanylmethyl)-[1,3,4]oxadiazol-2-yl]-phenoxy}-ethyl)-morpholine] |
| 105 to 107 | CN(C)CCNC(=O)Nc1ccc(-c2cnc(CSCCOc3ccccc3)o2)cc1.O=C(O)/C=C\C(=O)O [Example 250, 1-(2-Dimethylamino-ethyl)-3-{4-[2-(2-phenoxy-ethylsulfanylmethyl)-oxazol-5-yl]-phenyl}-urea maleate] |
| 155 to 158 | CN(C)CCNC(=S)Nc1ccc(-c2nnc(CSCCOc3ccccc3)o2)cc1 [Example 117, 1-(2-dimethylamino-ethyl)-3-{4-[5-(2-phenoxy-ethylsulfanylmethyl)-[1,3,4]oxadiazol-2-yl]-phenyl}-thiourea] |
| 120 to 123 | CN(C)CCCOc1ccc(-c2nnc(CSCCOc3ccccc3)n2-c2ccccc2)cc1.O=C(O)C(=O)O [Example 247, Dimethyl-(3-{4-[5-(2-phenoxy-ethylsulfanylmethyl)-4-phenyl-4H-[1,2,4]triazol-3-yl]-phenoxy}-propyl)-amine, oxalic acid salt] |
| 131 to 133 | CN(C)CCCOc1ccc(-c2nnc(CSCCCOc3ccccc3)o2)cc1.O=C(O)C(=O)O [Example 49, dimethyl-(3-{4-[5-(3-phenoxypropylsulfanylmethyl)-[1,3,4]oxadiazol-2-yl]-phenoxy}-propyl)-amine, oxalic acid salt] |

| melting point [°C] | SMILES |
| --- | --- |
| 102 to 104 | O=C(NCCN1CCCCC1)Nc1ccc(-c2cnc(COCc3cc4ccccc4o3)o2)cc1 [Example 256, 1-{4-[2-(benzofuran-2-ylmethoxymethyl)-oxazol-5-yl]-phenyl}-3-(2-piperidin-1-yl-ethyl)-urea] |
| 65 | c1ccc(OCCSCc2nnc(-c3ccc(OCCN4CCCC4)cc3)o2)cc1 [Example 76, 2-(2-phenoxy-ethylsulfanylmethyl)-5-[4-(2-pyrrolidin-1-yl-ethoxy)-phenyl]-[1,3,4]oxadiazole] |
| 114 to 116 | COc1cc(-c2nnc(CSCCOc3ccccc3)o2)ccc1OCCCN(C)C.O=C(O)/C=C\C(=O)O [Example 284, (3-{2-methoxy-4-[5-(2-phenoxy-ethylsulfanylmethyl)-[1,3,4]oxadiazol-2-yl]-phenoxy}-propyl)-dimethyl-amine; maleic acid salt] |
| 126 to 128 | O=C(NCCN1CCCCC1)Nc1ccc(-c2nnc(CSCCOc3ccccc3)o2)cc1 [Example 107, 1-{4-[5-(2-phenoxy-ethylsulfanylmethyl)-[1,3,4]oxadiazol-2-yl]-3-phenyl}-3-(2-piperidin-1-yl-ethyl)-urea] |
| 57 to 62 | c1ccc(OCCSCc2nnc(-c3ccc(OCCCCN4CCCCC4)cc3)o2)cc1 [Example 81, 1-(4-{4-[5-(2-phenoxy-ethylsulfanylmethyl)-[1,3,4]oxadiazol-2-yl]-phenoxy}-butyl)-piperidine] |
| 149 to 150 | CN1CCC(Oc2ccc(-c3nnc(CSCCOc4ccccc4)o3)cc2)CC1.O=C(O)/C=C\C(=O)O [Example 291, 1-methyl-4-{4-[5-(2-phenoxy-ethylsulfanylmethyl)-[1,3,4]oxadiazol-2-yl]-phenoxy}-piperidine; maleic acid salt] |
| 64 to 67 | c1ccc(OCCSCc2nnc(-c3ccc(OCCCCN4CCOCC4)cc3)o2)cc1 [Example 92, 4-(4-{4-[5-(2-phenoxy-ethylsulfanylmethyl)-[1,3,4]oxadiazol-2-yl]-phenoxy}-butyl)-morpholine] |
| 88 to 92 | CN(C)CCCOc1ccc(-c2nnc(CSCCOc3ccccc3)n2Cc2ccccc2)cc1.O=C(O)C(=O)O [Example 246, (3-{4-[4-benzyl-5-(2-phenoxyethylsulfanylmethyl)-4H-[1,2,4]triazol-3-yl]-phenoxy}-propyl)-dimethyl-amine, oxalic acid salt] |
| 42 to 44 | CC(C)N(CCCCOc1ccc(-c2nnc(CSCCOc3ccccc3)o2)cc1)C(C)C [Example 262, diisopropyl-(4-{4-[5-(2-phenoxy-ethylsulfanylmethyl)-[1,3,4]oxadiazol-2-yl]-phenoxy}-butyl)-amine] |
| 30 to 33 | CC(C)N(CCCOc1ccc(-c2nnc(CSCCOc3ccccc3)o2)cc1)C(C)C [Example 261, diisopropyl-(3-{4-[5-(2-phenoxy-ethylsulfanylmethyl)-[1,3,4]oxadiazol-2-yl]-phenoxy}-propyl)-amine] |
| 95 to 99 | CN(C)CCCOc1c(Cl)cc(-c2nnc(CSCCOc3ccccc3)o2)cc1Cl.O=C(O)/C=C/C(=O)O [Example 283, (3-{2,6-dichloro-4-[5-(2-phenoxy-ethylsulfanylmethyl)-[1,3,4]oxadiazol-2-yl]-phenoxy}-propyl)-dimethyl-amine; fumaric acid salt] |
| 46 to 46.5 | CN(C)CCCOc1ccc(-c2nnc(CSCCOc3cccc(OC(F)(F)F)c3)o2)cc1 [Example 276, [3-(4-{5-[2-(3-trifluoromethoxy-phenoxy)-ethylsulfanylmethyl]-[1,3,4]oxadiazol-2-yl}-phenoxy)-propyl]-dimethyl-amine] |
| 115 | c1ccc(OCCSCc2nnc(-c3ccc(OCc4ccccn4)cc3)o2)cc1 [Example 99, 2-{4-[5-(2-phenoxy-ethylsulfanylmethyl)-[1,3,4]oxadiazol-2-yl]-phenoxymethyl}-pyridine] |
| 124 to 126 | O=C(NCCN1CCCC1)Nc1ccc(-c2cnc(COCc3cc4ccccc4o3)o2)cc1 [Example 255, 1-{4-[2-(Benzofuran-2-ylmethoxymethyl)-oxazol-5-yl]-phenyl}-3-(2-pyrrolidin-1-yl-ethyl)-urea] |
| 69 to 73 | CN(C)CCCOc1ccc(-c2nnc(CSCCCCOc3ccccc3)o2)cc1 [Example 50, dimethyl-(3-{4-[5-(4-phenoxybutylsulfanylmethyl)-[1,3,4]oxadiazol-2-yl]-phenoxy}-propyl)-amine] |
| 62 to 64 | CN(C)CCOc1ccc(-c2nnc(CSCCOc3ccccc3)o2)cc1 [Example 66, dimethyl-(2-{4-[5-(2-phenoxy-ethylsulfanylmethyl)-[1,3,4]oxadiazol-2-yl]-phenoxy}-ethyl)-amine] |
| 71 to 78 | CN(C)CCCCNC(=O)c1ccc(-c2nnc(CSCCOc3ccccc3)o2)cc1 [Example 55, N-(4-dimethylaminobutyl)-4-[5-(2-phenoxyethylsulfanylmethyl)-[1,3,4]oxadiazol-2-yl]-benzamide] |

| SMILES | melting point [°C] |
| --- | --- |
| CN(C)CCCOc1ccc(-c2nnc(CSCCOC(C)(C)C)o2)cc1 [Example 280, (3-{4-[5-(2-tert-butoxy-ethylsulfanylmethyl)-[1,3,4]oxadiazol-2-yl]-phenoxy}-propyl)-dimethyl-amine] | 84.5 to 85.5 |
